Legend:
Type in all cases: cell-based
SK-Mel-28 melanoma cells = assay: Anti-proliferative assay (cell-titre luminescent), SK-Mel-28; details: Homo sapiens; SK-Mel-28, 72 hours, luminescence
Method: (§1) The ability of compounds 2002, 2009 and 2013-2064 to inhibit the proliferation of cancer cells representative of neuroblastoma, melanoma, prostate cancer, colorectal cancer, non-small cell lung carcinoma, and triple negative breast cancer was assessed. These studies were conducted by contract research (GVK-BIO). Briefly, a pre-determined number of cells as calculated from cell growth assays for each of the cell lines employed were seeded into their respective culture medium (using ATCC culture parameters—http://www.atcc.org) and cultured for 24 h at 37° C. and 5% CO2 in 96-well culture plates. Once attached, each cell line was then exposed to various concentrations of each respective analogue (30, 10, 3, 1, 0.3 and 0.1 μM), cultured for a further 72 hours and exposed to cell-titre luminescent reagent (100 μL/well) for a further 30 minutes). Luminescence was captured using an EnVision multilabel reader and the data for each analogue concentration compared against no treatment control. Cell viability was normalized to control (vehicle alone) and dose-response curves, and half maximal effective concentration (EC50) values were determined using Graph Pad Prism 6 (nonlinear regression sigmoidal dose-response variable slope).

[1] = system: DU145 prostate cancer cells; assay: Anti-proliferative assay (cell-titre luminescent), DU145; details: Homo sapiens, DU-145; DU145, 72 hours, luminescence
Method: as §1

[2] = system: CaCo2 colorectal cancer cells; assay: Anti-proliferative assay (cell-titre luminescent), CaCo2; details: Homo sapiens, Caco-2; CaCo2, 72 hours, luminescence
Method: as §1

A549 lung (NSLC) cells = assay: Anti-proliferative assay (cell-titre luminescent), A549; details: Homo sapiens; A549, 72 hours, luminescence
Method: as §1

[3] = system: MDA-MB-231 breast cancer cells; assay: Anti-proliferative assay (cell-titre luminescent), MDA-MB-231; details: Homo sapiens; MDA-MB-231, 72 hours, luminescence
Method: as §1

[4] = system: SK-N-SH neuroblastoma cells; assay: Anti-proliferative assay (cell-titre luminescent), SK-N-SH; details: Homo sapiens, 72 hours, luminescence
Method: as §1

[5] = system: PC3 prostate cancer cells; assay: Anti-proliferative assay (cell-titre luminescent), PC3; details: PC3, 72 hours, luminescence
Method: as §1

| IC50 (SK-Mel-28 melanoma cells) | IC50 [1] | IC50 [2] | IC50 (A549 lung (NSLC) cells) | IC50 [3] | IC50 [4] | IC50 [5] | SMILES |
| --- | --- | --- | --- | --- | --- | --- | --- |
| 4.3 µM | 7.7 µM | 5.6 µM | 9 µM | 4.9 µM | 4.7 µM | 6.8 µM | COc1ccc2c(c1)c(/C=C/C(=O)N1CCN(CCc3cccc(F)c3)CC1)c(C)n2CCCN1CCN(C)CC1 [Compound 2032, (E)-1-(4-(3-fluorophenethyl)piperazin-1-yl)-3-(5-methoxy-2-methyl-1-(3-(4-methylpiperazin-1-yl)propyl)-1H-indol-3-yl)prop-2-en-1-one] |
| 6.3 µM | 14.8 µM | 25.1 µM | 10.6 µM | 5.1 µM | 5.5 µM | 9.3 µM | COc1ccc(CCN2CCN(C(=O)/C=C/c3c(C)n(CCCN(C)C)c4ccc(OC)cc34)CC2)cc1 [Compound 2019, (E)-3-(1-(3-(dimethylamino)propyl)-5-methoxy-2-methyl-1H-indol-3-yl)-1-(4-(4-methoxyphenethyl)piperazin-1-yl)prop-2-en-1-one] |
| 3.4 µM | 7.9 µM | 5.4 µM | 7.9 µM | 4.3 µM | 3.6 µM | 4 µM | COc1ccc(CCN2CCN(C(=O)/C=C/c3c(C)n(CCCN4CCN(C)CC4)c4ccc(OC)cc34)CC2)cc1 [Compound 2030, (E)-3-(5-methoxy-2-methyl-1-(3-(4-methylpiperazin-1-yl)propyl)-1H-indol-3-yl)-1-(4-(4-methoxyphenethyl)piperazin-1-yl)prop-2-en-1-one] |
| 8.7 µM | 15.7 µM | 12.6 µM | 13.6 µM | 18.5 µM | 17.6 µM | 11.5 µM | Cc1c(/C=C/C(=O)N2CCN(CCc3ccccc3)CC2)c2ccccc2n1CCCN(C)C [Compound 2017, (E)-3-(1-(3-(dimethylamino)propyl)-2-methyl-1H-indol-3-yl)-1-(4-phenethylpiperazin-1-yl)prop-2-en-1-one] |
| 16.2 µM | 17.2 µM | 8.1 µM | 51.3 µM | 13.7 µM | 10.8 µM | 11.5 µM | COc1ccc2c(c1)c(/C=C/C(=O)N1CCN(CCc3ccccc3)CC1)c(C)n2CCCN1CCN(C)CC1 [Compound 2034, (E)-3-(5-methoxy-2-methyl-1-(3-(4-methylpiperazin-1-yl)propyl)-1H-indol-3-yl)-1-(4-phenethylpiperazin-1-yl)prop-2-en-1-one] |
| 4.3 µM | 12.1 µM | 38 µM | 15.9 µM | 5.7 µM | 8.5 µM | 8 µM | COc1ccc2c(c1)c(/C=C/C(=O)N1CCN(CCc3ccc(F)cc3)CC1)c(C)n2CCCN(C)C [Compound 2018, (E)-3-(1-(3-(dimethylamino)propyl)-5-methoxy-2-methyl-1H-indol-3-yl)-1-(4-(4-fluorophenethyl)piperazin-1-yl)prop-2-en-1-one] |
| 2 µM | 5.3 µM | 4.1 µM | 4.2 µM | 5.2 µM | 2.7 µM | 5.3 µM | CCN(CC)CCCn1c(C)c(/C=C/C(=O)N2CCN(CCc3ccccc3)CC2)c2cc(OC)ccc21 [Compound 2028, (E)-3-(1-(3-(diethylamino)propyl)-5-methoxy-2-methyl-1H-indol-3-yl)-1-(4-phenethylpiperazin-1-yl)prop-2-en-1-one] |
| 2.7 µM | 5 µM | 4.8 µM | 6.6 µM | 5 µM | 3.1 µM | 8.7 µM | CCOc1ccc2c(c1)c(/C=C/C(=O)N1CCN(CCc3ccc(F)cc3)CC1)c(C)n2CCCN1CCN(C)CC1 [Compound 2037, (E)-3-(5-ethoxy-2-methyl-1-(3-(4-methylpiperazin-1-yl)propyl)-1H-indol-3-yl)-1-(4-(4-fluorophenethyl)piperazin-1-yl)prop-2-en-1-one] |

| SMILES | IC50 (SK-Mel-28 melanoma cells) | IC50 [1] | IC50 [2] | IC50 (A549 lung (NSLC) cells) | IC50 [3] | IC50 [4] | IC50 [5] |
| --- | --- | --- | --- | --- | --- | --- | --- |
| CCOc1ccc2c(c1)c(C(=O)N1CCN(CCc3ccc(F)cc3)CC1)c(C)n2CCCN1CCN(C)CC1 [Compound 2064, (5-ethoxy-2-methyl-1-(3-(4-methylpiperazin-1-yl)propyl)-1H-indol-3-yl)(4-(4-fluorophenethyl)piperazin-1-yl)methanone] | 3.5 µM | 14 µM | 29.1 µM | 7.8 µM | 5.8 µM | 4.3 µM | 6.9 µM |
| Cc1c(C(=O)N2CCN(CCc3ccc4c(c3)OCO4)CC2)c2ccccc2n1CCCN(C)C [Compound 2040, (4-(2-(benzo[d][1,3]dioxol-5-yl)ethyl)piperazin-1-yl)(1-(3-(dimethylamino)propyl)-2-methyl-1H-indol-3-yl)methanone] | 16.4 µM | > 30 µM | > 30 µM | > 30 µM | > 30 µM | 26.4 µM | > 30 µM |
| CCN(CC)CCCn1c(C)c(C(=O)N2CCN(CCc3ccc(OC)cc3)CC2)c2cc(OC)ccc21 [Compound 2051, (1-(3-(diethylamino)propyl)-5-methoxy-2-methyl-1H-indol-3-yl)(4-(4-methoxyphenethyl)piperazin-1-yl)methanone] | 6 µM | > 30 µM | > 30 µM | > 30 µM | 10.3 µM | 10.9 µM | > 30 µM |
| COc1ccc2c(c1)c(C(=O)N1CCN(CCc3ccc(F)cc3)CC1)c(C)n2CCCN(C)C [Compound 2044, (1-(3-(dimethylamino)propyl)-5-methoxy-2-methyl-1H-indol-3-yl)(4-(4-fluorophenethyl)piperazin-1-yl)methanone] | 6.6 µM | 10.1 µM | 11.9 µM | 12.2 µM | 20.4 µM | 6.6 µM | 11 µM |
| COc1cccc(CCN2CCN(C(=O)c3c(C)n(CCCN(C)C)c4ccc(OC)cc34)CC2)c1 [Compound 2048, (1-(3-(dimethylamino)propyl)-5-methoxy-2-methyl-1H-indol-3-yl)(4-(3-methoxyphenethyl)piperazin-1-yl)methanone] | > 30 µM | > 30 µM | > 30 µM | > 30 µM | > 30 µM | > 30 µM | > 30 µM |
| COc1ccc2c(c1)c(C(=O)N1CCN(CCc3cccc(F)c3)CC1)c(C)n2CCCN(C)C [Compound 2047, (1-(3-(dimethylamino)propyl)-5-methoxy-2-methyl-1H-indol-3-yl)(4-(3-fluorophenethyl)piperazin-1-yl)methanone] | 13.5 µM | 13.6 µM | 8.8 µM | 14.3 µM | 12 µM | 10.9 µM | 14.9 µM |
| CCN(CC)CCCn1c(C)c(C(=O)N2CCN(CCc3ccc4c(c3)OCO4)CC2)c2cc(OC)ccc21 [Compound 2052, (4-(2-(benzo[d][1,3]dioxol-5-yl)ethyl)piperazin-1-yl)(1-(3-(diethylamino)propyl)-5-methoxy-2-methyl-1H-indol-3-yl)methanone] | 5.7 µM | 9.2 µM | 16 µM | 11.8 µM | 12.7 µM | 10.9 µM | 10.9 µM |

— patent publication US20170157135A1 (Novogen Limited, priority 2013, published 2017)
